The values that follow are results of earlier work, collected in patent US6717017B2, “Total synthesis of antitumor acylfulvenes” (The Regents of the University of California, priority 1996, dated 2004).

In one data set the test system is skin cancers. The note with it: in vivo.
Data set [1] concerns MV 522 metastatic lung carcinoma xenografts. The settings on record: MV 522 metastatic lung carcinoma xenografts in nude mice.

As for `CC1=C(CO)C2=C(C)C3(CC3)[C@@](C)(O)C(=O)C2=C1` [HMAF, hydroxymethylacylfulvene], the “activity against breast (MX-1) cancer” value in the data set with breast (MX-1) is listed as “outstanding activity”. For the same compound, in the data set with colon (HT-29), the “activity against colon (HT-29) cancer” value is reported as “outstanding activity”. For the same compound, the “activity against skin cancers” value with skin cancers is recorded as “outstanding activity”. For the same compound, the tumor regression result in data set [1] is given as “complete tumor regression was observed in all animals”.
